The structures appear in SMILES notation.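 Protocol summary: plate cells (96-well), add compound at 5 concentrations, incubate 48 h, interpolate endpoints linearly. GI50 marks 50% less growth.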 Activity calls are given as the source filed them. No stated cut-off is given here; in the data, active = GI50 up to about 1.1 µM and inactive = higher.

Test systems include OVCAR-5; NCI-H522; SW-620; HOP-62; A549; OVCAR-8; SK-OV-3; LOX IMVI; A498; NCI-H226; EKVX; HT-29; SF-539; HOP-92; HCT-116; COLO 205; U-251; UO-31; SR.
Holding throughout (experiment): inhibition of tumour cell growth, NCI panel, 48 h

In the case of `COc1nc(O)c(N)c(NC2OC(CO)C(O)C(O)C2O)n1` (centres undefined), the GI50 in the experiment on OVCAR-5, with NCI-H522, in the experiment with SW-620, in the experiment with HOP-62, in the experiment with A549 and in the experiment with OVCAR-8 was > 100 µM (inactive) each time. In addition, the GI50 in the experiment with SK-OV-3 is > 100 µM (inactive); in the experiment with LOX IMVI, > 100 µM (inactive); in the experiment with A498, > 100 µM (inactive); in the experiment with NCI-H226, > 31.6 µM (inactive); in the experiment on EKVX, > 100 µM (inactive); with HT-29, > 100 µM (inactive). Moreover, the GI50 in the experiment on SF-539, with HOP-92, in the experiment with HCT-116, in the experiment on COLO 205, in the experiment with U-251 and with UO-31 was > 100 µM (inactive) throughout.
Turning to `CCC(C(C)N1CC(=O)NC(=O)C1)N1CC(=O)NC(=O)C1` (centres undefined), the GI50 is > 25.1 µM (inactive) in the experiment on OVCAR-5; 5.65 µM (inactive) in the experiment on NCI-H522; 17.4 µM (inactive) in the experiment on SW-620; 7.01 µM (inactive) in the experiment with HOP-62; 1.51 µM (inactive) in the experiment with A549; > 100 µM (inactive) in the experiment on OVCAR-8. Besides, the GI50 in the experiment with SK-OV-3 is > 100 µM (inactive); in the experiment on LOX IMVI, > 100 µM (inactive); in the experiment on A498, > 100 µM (inactive); in the experiment on NCI-H226, 16.1 µM (inactive); in the experiment on EKVX it was > 19.7 µM (inactive); with HT-29, 62.1 µM (inactive). Also, the GI50 in the experiment on SF-539 is > 39.7 µM (inactive); in the experiment on HOP-92 it was > 100 µM (inactive); with HCT-116, 23.4 µM (inactive); in the experiment on COLO 205 it was 0.506 µM (active); with U-251 it was > 61.9 µM (inactive); in the experiment on UO-31, > 37.5 µM (inactive).
Turning to `CCCCSCC(NC(=O)/C=C/c1c(C)[nH]c(=O)[nH]c1=O)C(=O)OC` (centres undefined), the GI50 with OVCAR-5 is 77.1 µM (inactive); in the experiment on NCI-H522 it was 14.9 µM (inactive); in the experiment on SW-620, 78 µM (inactive); with HOP-62, 70.5 µM (inactive); in the experiment on A549, 124 µM (inactive); in the experiment with OVCAR-8, 37.9 µM (inactive). The GI50 with SK-OV-3 was 45.4 µM (inactive); with LOX IMVI it was 78.3 µM (inactive); in the experiment with A498 it was 79.6 µM (inactive); in the experiment with NCI-H226, 43.9 µM (inactive); in the experiment on EKVX it was 34.2 µM (inactive); in the experiment with HT-29, 102 µM (inactive). For the same compound, the GI50 in the experiment with SF-539 was 61.2 µM (inactive); with HOP-92, 36.1 µM (inactive); in the experiment with HCT-116, 30.3 µM (inactive); in the experiment on COLO 205, 36.5 µM (inactive); in the experiment on U-251 it was 16.6 µM (inactive); in the experiment on UO-31, 49.4 µM (inactive).
Consider `Cc1cc(C(C)(C)C)cc(Cc2cc(C(C)(C)C)cc(Cc3cc(C(C)(C)C)cc(C)c3O)c2O)c1O`, for which the GI50 in the experiment on OVCAR-5 was 17.5 µM (inactive); in the experiment on NCI-H522 it was 3.71 µM (inactive); in the experiment on SW-620 it was 5.28 µM (inactive); with HOP-62, 15.4 µM (inactive); with A549, 5.86 µM (inactive); in the experiment on OVCAR-8, 5.5 µM (inactive). Besides, the GI50 is 14.1 µM (inactive) with SK-OV-3; 7.73 µM (inactive) with LOX IMVI; 19.5 µM (inactive) in the experiment with A498; 12.1 µM (inactive) in the experiment on NCI-H226; 10.8 µM (inactive) with EKVX; 11.7 µM (inactive) with HT-29. Moreover, the GI50 in the experiment on SF-539 was 7.71 µM (inactive); in the experiment with HOP-92 it was 2.94 µM (inactive); with HCT-116 it was 3.13 µM (inactive); with COLO 205, 16.2 µM (inactive); in the experiment with U-251, 4.07 µM (inactive); in the experiment on UO-31, 13.2 µM (inactive).
`CN1C(=O)NC2(O)c3ccccc3C(=O)C12O` (centres undefined): the GI50 in the experiment with OVCAR-5, with NCI-H522, with SW-620, in the experiment on A549, in the experiment on OVCAR-8 and with SK-OV-3 was > 100 µM (inactive) each time. Besides, the GI50 in the experiment with LOX IMVI, in the experiment with SR, in the experiment with EKVX, in the experiment on HT-29, with HOP-92 and in the experiment on HCT-116 was > 100 µM (inactive) throughout. Moreover, the GI50 in the experiment on COLO 205, in the experiment with U-251 and in the experiment on UO-31 was > 100 µM (inactive) in each case.
In the case of `CC1(C)c2ccccc2C(C)(C)C(C(=O)Nc2ccccc2)C1C(=O)O` (centres undefined), the GI50 in the experiment on OVCAR-5, in the experiment on NCI-H522, in the experiment on SW-620, in the experiment with HOP-62, with A549 and in the experiment on OVCAR-8 was > 100 µM (inactive) each time. Also, the GI50 in the experiment with SK-OV-3, with LOX IMVI, in the experiment with A498, in the experiment on NCI-H226, in the experiment on EKVX and with HT-29 was > 100 µM (inactive) throughout. The GI50 in the experiment with SF-539 is > 100 µM (inactive); in the experiment with HOP-92, > 100 µM (inactive); in the experiment on HCT-116 it was 95.1 µM (inactive); in the experiment with COLO 205, > 100 µM (inactive); in the experiment on U-251 it was > 100 µM (inactive); in the experiment on UO-31 it was > 100 µM (inactive).
As to `COC1=CC(=O)c2ccccc2C1(CCC=C(C)C)C1=NC(C)(C)CO1` (centres undefined), the GI50 in the experiment with NCI-H522 was 42.4 µM (inactive); in the experiment with SW-620 it was > 100 µM (inactive); with HOP-62 it was > 100 µM (inactive); in the experiment on A549, 51.6 µM (inactive); in the experiment on OVCAR-8, 70.8 µM (inactive); with SK-OV-3, 86.5 µM (inactive). Moreover, the GI50 is 40.3 µM (inactive) in the experiment with SR; > 100 µM (inactive) with NCI-H226; 71.8 µM (inactive) with EKVX; 81.8 µM (inactive) in the experiment on HT-29; > 100 µM (inactive) in the experiment on SF-539; 99.3 µM (inactive) with HOP-92. Moreover, the GI50 in the experiment on HCT-116 is 48.4 µM (inactive); in the experiment on COLO 205, > 100 µM (inactive); in the experiment with U-251, 80.4 µM (inactive); in the experiment with UO-31, 28.6 µM (inactive).
As to `CCC1=CCN(c2cc(C)ccn2)OC1c1ccc(OC)cc1` (centres undefined), the GI50 is 26.5 µM (inactive) in the experiment with OVCAR-5; 16 µM (inactive) with NCI-H522; 38.1 µM (inactive) in the experiment on SW-620; 44.3 µM (inactive) in the experiment on HOP-62; 35.2 µM (inactive) with A549; 32.8 µM (inactive) in the experiment with OVCAR-8. The GI50 was 48.8 µM (inactive) with SK-OV-3; 30.1 µM (inactive) in the experiment with LOX IMVI; 25.5 µM (inactive) in the experiment on SR; 38.3 µM (inactive) with NCI-H226; 40.6 µM (inactive) with EKVX; 21.6 µM (inactive) in the experiment with HT-29. Also, the GI50 with SF-539 was > 10 µM (inactive); in the experiment on HCT-116, 21.2 µM (inactive); with COLO 205, 16.3 µM (inactive); with U-251 it was 21.5 µM (inactive); in the experiment on UO-31, 25.6 µM (inactive).
Regarding `CC1(C)CC23C4COC(=O)C2CCC1C3CC4=O` (centres undefined), the GI50 is 32.6 µM (inactive) in the experiment with OVCAR-5; 3.32 µM (inactive) in the experiment on NCI-H522; 3.04 µM (inactive) with SW-620; 24.4 µM (inactive) with HOP-62; 19.1 µM (inactive) in the experiment with A549; 10 µM (inactive) with OVCAR-8. Moreover, the GI50 was 39.3 µM (inactive) in the experiment on SK-OV-3; 8.39 µM (inactive) in the experiment on LOX IMVI; 5.92 µM (inactive) in the experiment on A498; 6.59 µM (inactive) in the experiment on NCI-H226; 26.7 µM (inactive) in the experiment on EKVX; 22.9 µM (inactive) with HT-29. Moreover, the GI50 in the experiment with SF-539 is 19.5 µM (inactive); in the experiment with HOP-92, 8.26 µM (inactive); in the experiment on HCT-116, 6.71 µM (inactive); with COLO 205, 15.6 µM (inactive); in the experiment with U-251, 20.7 µM (inactive); in the experiment on UO-31 it was 28.6 µM (inactive).
With `C=C/C=C/NC(=O)OCc1ccccc1`, the GI50 in the experiment with OVCAR-5, in the experiment on NCI-H522, in the experiment with SW-620, with HOP-62, with A549 and in the experiment on OVCAR-8 was > 100 µM (inactive) throughout. Moreover, the GI50 is > 100 µM (inactive) with SK-OV-3; > 100 µM (inactive) in the experiment with LOX IMVI; 98.9 µM (inactive) with SR; > 100 µM (inactive) in the experiment on EKVX; > 100 µM (inactive) with HT-29; > 100 µM (inactive) in the experiment on HOP-92. For the same compound, the GI50 with HCT-116, with COLO 205, in the experiment on U-251 and in the experiment on UO-31 was > 100 µM (inactive) in each case.
As to `Cc1ccc2c(c1)C1(OC(=O)c3ccccc31)c1ccc(F)cc1O2` (centres undefined), the GI50 with OVCAR-5 is > 100 µM (inactive); in the experiment with NCI-H522, 23.9 µM (inactive); in the experiment on SW-620, 34.6 µM (inactive); in the experiment on HOP-62 it was > 100 µM (inactive); in the experiment on A549, 48.9 µM (inactive); with OVCAR-8, > 100 µM (inactive). The GI50 with SK-OV-3 was > 100 µM (inactive); in the experiment on LOX IMVI, 39.6 µM (inactive); with SR, 25.5 µM (inactive); in the experiment with NCI-H226 it was 18.7 µM (inactive); with EKVX, 59 µM (inactive); in the experiment on HT-29 it was 39.3 µM (inactive). Besides, the GI50 is 16.1 µM (inactive) in the experiment on HOP-92, 32.7 µM (inactive) in the experiment with HCT-116, 38.7 µM (inactive) in the experiment with COLO 205 and 20.3 µM (inactive) with UO-31.
As to `CC(=O)NC1=C(NCC(C)(C)C)C(=O)c2ccccc2C1=O`, the GI50 in the experiment with NCI-H522 is 18.9 µM (inactive); in the experiment on SW-620, 66.5 µM (inactive); in the experiment with HOP-62 it was > 100 µM (inactive); in the experiment with A549, > 100 µM (inactive); in the experiment with OVCAR-8, 70.6 µM (inactive); with SK-OV-3, > 100 µM (inactive). Moreover, the GI50 in the experiment with LOX IMVI is 66.8 µM (inactive); with SR, > 100 µM (inactive); in the experiment on NCI-H226, > 100 µM (inactive); in the experiment on EKVX, 76.9 µM (inactive); in the experiment with HT-29, > 100 µM (inactive); with SF-539, 32.9 µM (inactive). The GI50 was 33.7 µM (inactive) with HCT-116, 39.3 µM (inactive) in the experiment on COLO 205, 65 µM (inactive) in the experiment on U-251 and 46.3 µM (inactive) in the experiment on UO-31.
